Data: ChEMBL document CHEMBL1201861, “Genomics of Drug Sensitity in Cancer screening data, Wellcome Trust Sanger Institute”

How the values were obtained:
Test in all cases: cells
[1] = system: GI-ME-N; format: functional, cell-based, Homo sapiens; details: Homo sapiens, GI-ME-N;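 note: growth inhibition of human GI-ME-N cells, read out with a cell viability assay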
Description: SANGER: Inhibition of human GI-ME-N cell growth in a cell viability assay.

[2] = system: no-11; format: functional, cell-based, Homo sapiens; details: Homo sapiens;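 note: growth inhibition of human NO-11 cells, read out with a cell viability assay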
Description: SANGER: Inhibition of human no-11 cell growth in a cell viability assay.

[3] = system: NCI-H69; format: functional, cell-based, Homo sapiens; details: Homo sapiens, NCI-H69;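 note: growth inhibition of the cell line, read out with a cell viability assay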
Description: SANGER: Inhibition of human NCI-H69 cell growth in a cell viability assay.

[4] = system: SBC-1; format: functional, cell-based, Homo sapiens; details: Homo sapiens, SBC-1;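 note: cell viability assay measuring growth inhibition of the SBC-1 cell line, IC50 being the concentration that halves growth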
Description: SANGER: Inhibition of human SBC-1 cell growth in a cell viability assay.

[5] = system: HAL-01; format: functional, cell-based, Homo sapiens; details: Homo sapiens, HAL-01;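 note: growth inhibition of human HAL-01 cells, read out with a cell viability assay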
Description: SANGER: Inhibition of human HAL-01 cell growth in a cell viability assay.

[6] = system: KS-1; format: functional, cell-based; details: Homo sapiens;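 note: growth inhibition of KS-1 cells, read out with a cell viability assay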
Description: SANGER: Inhibition of human KS-1 cell growth in a cell viability assay.

[7] = system: KM-H2; format: functional, cell-based, Homo sapiens; details: Homo sapiens, KM-H2;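 note: growth inhibition of KM-H2 cells, read out by a cell viability assay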
Description: SANGER: Inhibition of human KM-H2 cell growth in a cell viability assay.

[8] = system: EW-16; format: functional, cell-based, Homo sapiens; details: Homo sapiens, EW-16;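 note: growth inhibition of human EW-16 cells, read out as cell viability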
Description: SANGER: Inhibition of human EW-16 cell growth in a cell viability assay.

[9] = system: CTB-1; format: functional, cell-based, Homo sapiens; details: Homo sapiens, CTB-1
Description: SANGER: Inhibition of human CTB-1 cell growth in a cell viability assay.

[10] = system: HEL; format: functional, cell-based, Homo sapiens; details: Homo sapiens, HEL;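 note: growth inhibition of HEL cells, read out with a cell viability assay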
Description: SANGER: Inhibition of human HEL cell growth in a cell viability assay.

[11] = system: ALL-PO; format: functional, cell-based, Homo sapiens; details: Homo sapiens, ALL-PO;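 note: growth inhibition of ALL-PO cells, read out by a cell viability assay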
Description: SANGER: Inhibition of human ALL-PO cell growth in a cell viability assay.

[12] = system: NB5; format: functional, cell-based, Homo sapiens; details: Homo sapiens, NB5;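 note: growth inhibition of NB5 cells, read out as cell viability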
Description: SANGER: Inhibition of human NB5 cell growth in a cell viability assay.

[13] = system: GT3TKB; format: functional, cell-based, Homo sapiens; details: Homo sapiens, GT3TKB;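 note: growth inhibition of the cell line, read out with a cell viability assay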
Description: SANGER: Inhibition of human GT3TKB cell growth in a cell viability assay.

[14] = system: NCI-H1648; format: functional, cell-based, Homo sapiens; details: Homo sapiens, NCI-H1648;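 note: cell viability assay measuring inhibition of NCI-H1648 cell growth, from the Sanger screening data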
Description: SANGER: Inhibition of human NCI-H1648 cell growth in a cell viability assay.

[15] = system: KURAMOCHI; format: functional, cell-based, Homo sapiens; details: Homo sapiens, KURAMOCHI;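 note: growth inhibition of KURAMOCHI cells, read out with a cell viability assay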
Description: SANGER: Inhibition of human KURAMOCHI cell growth in a cell viability assay.

[16] = system: RCC10RGB; format: functional, cell-based, Homo sapiens; details: Homo sapiens, RCC10RGB;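 note: growth inhibition of human RCC10RGB cells, read out by a cell viability assay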
Description: SANGER: Inhibition of human RCC10RGB cell growth in a cell viability assay.

[17] = system: NCI-H1838; format: functional, cell-based, Homo sapiens; details: Homo sapiens, NCI-H1838;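 note: growth inhibition of NCI-H1838 cells, determined with a cell viability readout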
Description: SANGER: Inhibition of human NCI-H1838 cell growth in a cell viability assay.

[18] = system: IST-SL1; format: functional, cell-based, Homo sapiens; details: Homo sapiens, IST-SL1;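 note: growth inhibition of human IST-SL1 cells, read out with a cell viability assay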
Description: SANGER: Inhibition of human IST-SL1 cell growth in a cell viability assay.

[19] = system: SK-UT-1; format: functional, cell-based, Homo sapiens; details: Homo sapiens, SK-UT-1;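 note: growth inhibition of SK-UT-1 cells, measured by a cell viability assay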
Description: SANGER: Inhibition of human SK-UT-1 cell growth in a cell viability assay.

[20] = system: Lu-65; format: functional, cell-based, Homo sapiens; details: Homo sapiens, Lu-65;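 note: growth inhibition of Lu-65 cancer cells, read out by a cell viability assay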
Description: SANGER: Inhibition of human LU-65 cell growth in a cell viability assay.

[21] = system: HD-MY-Z; format: functional, cell-based, Homo sapiens; details: Homo sapiens, HD-MY-Z;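 note: growth inhibition of HD-MY-Z cells, read out with a cell viability assay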
Description: SANGER: Inhibition of human HD-MY-Z cell growth in a cell viability assay.

[22] = system: NB10; format: functional, cell-based, Homo sapiens; details: Homo sapiens, NB10;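 note: growth inhibition of NB10 cells, read out by a cell viability assay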
Description: SANGER: Inhibition of human NB10 cell growth in a cell viability assay.

[23] = system: LC-2-ad; format: functional, cell-based, Homo sapiens; details: Homo sapiens, LC-2-ad;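 note: growth inhibition of human LC-2-ad cells, read out with a cell viability assay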
Description: SANGER: Inhibition of human LC-2-ad cell growth in a cell viability assay.

[24] = system: LNCaP-Clone-FGC; format: functional, cell-based, Homo sapiens; details: Homo sapiens, LNCaP-Clone-FGC
Description: SANGER: Inhibition of human LNCaP-Clone-FGC cell growth in a cell viability assay.

[25] = system: RS4-11; format: functional, cell-based, Homo sapiens; details: Homo sapiens, RS4-11;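 note: growth inhibition of RS4-11 cells, read out by a cell viability assay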
Description: SANGER: Inhibition of human RS4-11 cell growth in a cell viability assay.

[26] = system: MOLT-16; format: functional, cell-based, Homo sapiens; details: Homo sapiens, MOLT-16;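 note: growth inhibition of human MOLT-16 cells, read out with a cell viability assay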
Description: SANGER: Inhibition of human MOLT-16 cell growth in a cell viability assay.

[27] = system: DB; format: functional, cell-based, Homo sapiens; details: Homo sapiens, DB
Description: SANGER: Inhibition of human DB cell growth in a cell viability assay.

[28] = system: ATN-1; format: functional, cell-based, Homo sapiens; details: Homo sapiens, ATN-1;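 note: growth inhibition of human ATN-1 cells, read out with a cell viability assay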
Description: SANGER: Inhibition of human ATN-1 cell growth in a cell viability assay.

[29] = system: SCH; format: functional, cell-based, Homo sapiens; details: Homo sapiens, SCH;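 note: growth inhibition of human SCH cells, read out in a cell viability assay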
Description: SANGER: Inhibition of human SCH cell growth in a cell viability assay.

[30] = system: TE-8; format: functional, cell-based, Homo sapiens; details: Homo sapiens, TE-8;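 note: growth inhibition of TE-8 cells, measured with a cell viability readout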
Description: SANGER: Inhibition of human TE-8 cell growth in a cell viability assay.

[31] = system: COLO-800; format: functional, cell-based, Homo sapiens; details: Homo sapiens, COLO-800;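 note: growth inhibition of COLO-800 cells, read out with a cell viability assay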
Description: SANGER: Inhibition of human COLO-800 cell growth in a cell viability assay.

[32] = system: NCI-H1395; format: functional, cell-based, Homo sapiens; details: Homo sapiens, NCI-H1395;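 note: cell viability assay read-out quantifying reduced proliferation of human NCI-H1395 cells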
Description: SANGER: Inhibition of human NCI-H1395 cell growth in a cell viability assay.

[33] = system: COLO-829; format: functional, cell-based, Homo sapiens; details: Homo sapiens, COLO-829
Description: SANGER: Inhibition of human COLO-829 cell growth in a cell viability assay.

[34] = system: NCI-H1092; format: functional, cell-based, Homo sapiens; details: Homo sapiens, NCI-H1092;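 note: cell growth inhibition measured with a cell viability assay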
Description: SANGER: Inhibition of human NCI-H1092 cell growth in a cell viability assay.

[35] = system: NCI-H1581; format: functional, cell-based, Homo sapiens; details: Homo sapiens, NCI-H1581;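 note: cell growth inhibition read out by a viability assay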
Description: SANGER: Inhibition of human NCI-H1581 cell growth in a cell viability assay.

[36] = system: GOTO; format: functional, cell-based, Homo sapiens; details: Homo sapiens, GOTO;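 note: growth inhibition of GOTO cells, read out by a cell viability assay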
Description: SANGER: Inhibition of human GOTO cell growth in a cell viability assay.

[37] = system: RPMI-8226; format: functional, cell-based, Homo sapiens; details: Homo sapiens, RPMI-8226
Description: SANGER: Inhibition of human RPMI-8226 cell growth in a cell viability assay.

[38] = system: SK-MEL-1; format: functional, cell-based, Homo sapiens; details: Homo sapiens, SK-MEL-1;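 note: growth inhibition of human SK-MEL-1 cells, read out by a cell viability assay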
Description: SANGER: Inhibition of human SK-MEL-1 cell growth in a cell viability assay.

[39] = system: NMC-G1; format: functional, cell-based, Homo sapiens; details: Homo sapiens, NMC-G1;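 note: growth inhibition of the NMC-G1 cell line, measured with a cell viability read-out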
Description: SANGER: Inhibition of human NMC-G1 cell growth in a cell viability assay.

[40] = system: C8166; format: functional, cell-based, Homo sapiens; details: Homo sapiens, C8166;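 note: growth inhibition of human C8166 cells measured by a cell viability assay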
Description: SANGER: Inhibition of human C8166 cell growth in a cell viability assay.

[41] = system: LAN-6; format: functional, cell-based, Homo sapiens; details: Homo sapiens, LAN-6;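 note: growth inhibition of LAN-6 cells, determined with a cell viability assay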
Description: SANGER: Inhibition of human LAN-6 cell growth in a cell viability assay.

[42] = system: MN-60; format: functional, cell-based, Homo sapiens; details: Homo sapiens, MN-60;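 note: growth inhibition of the MN-60 cell line, determined with a cell viability assay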
Description: SANGER: Inhibition of human MN-60 cell growth in a cell viability assay.

[43] = system: ONS-76; format: functional, cell-based, Homo sapiens; details: Homo sapiens, ONS-76;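 note: growth inhibition of human ONS-76 cells, read out with a cell viability assay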
Description: SANGER: Inhibition of human ONS-76 cell growth in a cell viability assay.

[44] = system: NKM-1; format: functional, cell-based, Homo sapiens; details: Homo sapiens, NKM-1;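 note: growth inhibition of NKM-1 cells, read out with a cell viability assay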
Description: SANGER: Inhibition of human NKM-1 cell growth in a cell viability assay.

[45] = system: NCI-H23; format: functional, cell-based, Homo sapiens; details: Homo sapiens, NCI-H23;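 note: cell viability assay measuring growth inhibition of NCI-H23 cells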
Description: SANGER: Inhibition of human NCI-H23 cell growth in a cell viability assay.

[46] = system: OVCAR-4; format: functional, cell-based, Homo sapiens; details: Homo sapiens, OVCAR-4;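 note: growth inhibition of human OVCAR-4 cells, measured with a cell viability assay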
Description: SANGER: Inhibition of human OVCAR-4 cell growth in a cell viability assay.

[47] = system: LXF-289 cell line; format: functional, cell-based; details: Homo sapiens
Description: SANGER: Inhibition of human LXF-289 cell growth in a cell viability assay.

[48] = system: KALS-1; format: functional, cell-based, Homo sapiens; details: Homo sapiens, KALS-1; read-out: IC50;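 note: growth inhibition of KALS-1 cells, determined with a cell viability assay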
Description: SANGER: Inhibition of human KALS-1 cell growth in a cell viability assay.

[49] = system: TGW; format: functional, cell-based, Homo sapiens; details: Homo sapiens, TGW;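 note: growth inhibition of human TGW cells, read out with a cell viability assay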
Description: SANGER: Inhibition of human TGW cell growth in a cell viability assay.

## O=S(=O)(O)c1ccc2cc(/N=N/c3cc(S(=O)(=O)O)c4cccnc4c3O)ccc2c1
[1]
  IC50: > 16 µM
[2]
  IC50: > 16 µM
[3]
  IC50: > 16 µM
[4]
  IC50: > 16 µM
[5]
  IC50: > 16 µM
[6]
  IC50: > 16 µM
[7]
  IC50: > 16 µM
[8]
  IC50: > 16 µM
[9]
  IC50: > 16 µM
[10]
  IC50: > 16 µM
[11]
  IC50: > 16 µM
[12]
  IC50: > 16 µM
[13]
  IC50: > 16 µM
[14]
  IC50: > 16 µM
[15]
  IC50: > 16 µM
[16]
  IC50: > 16 µM
[17]
  IC50: > 16 µM
[18]
  IC50: > 16 µM
[19]
  IC50: > 16 µM
[20]
  IC50: > 16 µM
[21]
  IC50: > 16 µM
[22]
  IC50: > 16 µM
[23]
  IC50: > 16 µM
[24]
  IC50: > 16 µM
[25]
  IC50: > 16 µM
[26]
  IC50: > 16 µM
[27]
  IC50: > 16 µM
[28]
  IC50: > 16 µM
[29]
  IC50: > 16 µM
[30]
  IC50: > 16 µM
[31]
  IC50: > 16 µM
[32]
  IC50: > 16 µM
[33]
  IC50: > 16 µM
[34]
  IC50: > 16 µM
[35]
  IC50: > 16 µM
[36]
  IC50: > 16 µM
[37]
  IC50: > 16 µM
[38]
  IC50: > 16 µM
[39]
  IC50: > 16 µM
[40]
  IC50: > 16 µM
[41]
  IC50: > 16 µM
[42]
  IC50: > 16 µM
[43]
  IC50: > 16 µM
[44]
  IC50: > 16 µM
[45]
  IC50: > 16 µM
[46]
  IC50: > 16 µM
[47]
  IC50: > 16 µM
[48]
  IC50: > 16 µM
[49]
  IC50: > 16 µM

## COc1ccc(N(C(=O)Oc2c(C)cccc2C)c2ccnc(Nc3ccc(N4CCN(C)CC4)cc3)n2)c(OC)c1
[1]
  IC50: 3.25 µM
[2]
  IC50: > 5.12 µM
[3]
  IC50: > 5.12 µM
[4]
  IC50: > 5.12 µM
[5]
  IC50: > 5.12 µM
[6]
  IC50: 0.0776 µM
[7]
  IC50: > 5.12 µM
[8]
  IC50: > 5.12 µM
[9]
  IC50: > 5.12 µM
[10]
  IC50: > 5.12 µM
[11]
  IC50: > 5.12 µM
[12]
  IC50: > 5.12 µM
[13]
  IC50: > 5.12 µM
[14]
  IC50: 0.516 µM
[15]
  IC50: 2.24 µM
[16]
  IC50: 0.426 µM
[17]
  IC50: > 5.12 µM
[18]
  IC50: > 5.12 µM
[19]
  IC50: > 5.12 µM
[20]
  IC50: > 5.12 µM
[21]
  IC50: > 5.12 µM
[22]
  IC50: > 5.12 µM
[23]
  IC50: 0.0203 µM
[24]
  IC50: > 5.12 µM
[25]
  IC50: > 5.12 µM
[26]
  IC50: > 5.12 µM
[27]
  IC50: > 5.12 µM
[28]
  IC50: > 5.12 µM
[29]
  IC50: > 5.12 µM
[30]
  IC50: 0.239 µM
[31]
  IC50: > 5.12 µM
[32]
  IC50: > 5.12 µM
[33]
  IC50: 0.312 µM
[34]
  IC50: > 5.12 µM
[35]
  IC50: > 5.12 µM
[36]
  IC50: > 5.12 µM
[37]
  IC50: > 5.12 µM
[38]
  IC50: > 5.12 µM
[39]
  IC50: > 5.12 µM
[40]
  IC50: > 5.12 µM
[41]
  IC50: > 5.12 µM
[42]
  IC50: > 5.12 µM
[43]
  IC50: > 5.12 µM
[44]
  IC50: > 5.12 µM
[45]
  IC50: > 5.12 µM
[46]
  IC50: > 5.12 µM
[47]
  IC50: 1.27 µM
[48]
  IC50: > 5.12 µM
[49]
  IC50: > 5.12 µM
